In the assay the test system is 3T3-L1 preadipocytes. The assay can be described thus: FD-glucose uptake in 3T3-L1 preadipocytes. In kind it is cell-based, mouse. The note with it: for glucose uptake compared to non-stimulated 3T3-L1 preadipocytes: 30 mins, insulin 10 μg/ml, EREG 50 ng/ml, forskolin 4 μg/ml. As to the method: Non-differentiated, 90% confluent 3T3-L1 cells were starved with glucose-deprived medium for 40 min. Then cells were treated in the presence and absence of different concentrations of nanoscaffold #2 and bovine insulin (200 μg/mL), all of reagents dissolved in the same glucose-deprived medium but containing fluorescent-D (FD)-glucose for 80 min. Thereafter, the FD glucose uptake was measured according to manufacturer's instructions (Cayman Chemical, USA, cat #600471). […] Non-differentiated, 90% confluent 3T3-L1 cells treated in the presence and absence of different concentrations of nanoscaffold #2 and bovine insulin (10 μg/mL) or mouse epiregulin (EREG, 0.05 μg/mL) and incubated for 24 h. Then cells were starved with glucose-deprived medium for 40 min and, then incubated with fluorescent-D (FD)-glucose for 80 min. Thereafter, the FD glucose uptake was measured according to manufacturer's instructions (Cayman Chemical, USA, cat #600471). Data are shown as percent of uptake in the presence of insulin (100%).
Non-differentiated, 90% confluent 3T3-L1 cells treated in the presence of bovine insulin (10 μg/mL), mouse epiregulin (EREG, 0.05 μg/mL), or their combinations and incubated for 24 h. Then cells were starved with glucose-deprived medium for 40 min and, then incubated with fluorescent-D (FD)-glucose for 80 min. Thereafter, the FD glucose uptake was measured according to manufacturer's instructions (Cayman Chemical, USA, cat #600471).
Non-differentiated, 90% confluent 3T3-L1 cells were starved with glucose-deprived medium for 50 min. Then cells were treated in the presence and absence of different concentrations of mouse recombinant IGFBP4 with and without nanoscaffold #2 and human insulin (10 μg/mL). All of reagents were dissolved in the same glucose-deprived medium but containing fluorescent-D (FD)-glucose for 90 min. Thereafter, the FD glucose uptake was measured according to manufacturer's instructions (Cayman Chemical, USA, cat #600471).
Glucose uptake assay was performed using glucose uptake cell-based assay kit (Cayman Chemical, Ann Arbor, MI). 3T3-L1 or human preadipocytes were cultured at a density of 5×10^4 per well into a 96-well plate (n=7) in high glucose media and grown overnight. Old cell culture medium was removed the next day and washed with PBS to remove residual glucose. Supplied 2-deoxy-2-[(7-nitro-2,1,3-benzoxadiazol-4-yl)amino]-D-glucose) (2-NBDG) was diluted to 150 μg/mL in DMEM medium without glucose, phenol red, L-glutamine, sodium pyruvate, and HEPES (Life technologies, Grand Island, New York). 100 μL of 2-NBDG glucose free medium with or without recombinant EREG and other treatments was added to the plated cells. After incubating at 37° C. for 30 minutes, cells were washed gently two times with 200 μL of glucose assay buffer. 100 μL of the assay buffer was added to each well and measured for fluorescence at an excitation/emission of 485/535 nm.
Fluorescence glucose uptake (FD-glucose assay) was performed as described PMID: 32065973, using insulin, 1.7 μM and different AACs at concentration 0.1 μM.
FD-glucose uptake in mouse 3T3-L1 preadipocytes (n=8 per treatment) treated with vehicle (Veh; PBS, open bar) or hINS (1.7 μM), mouse leptin (mLep; 12.5 nM, hatched bar), or AAC2 (0.1 μM black bar) in the presence and absence of GLUT1 inhibitor (BAY-876; 10 nM in DMSO). Cells were pre-treated with or without BAY-876 for 40 min and then FD glucose and treatment reagents were added for additional 80 min of incubation. Data (%) was normalized to FD-glucose uptake in control (Veh) 3T3-L1 cells without inhibitor (100%). Student's independent t-test.

As to “EREG: Epiregulin, member of the epidermal growth factor family; recombinant mouse or human protein”, the “glucose uptake compared to non-stimulated 3T3-L1 preadipocytes” value is listed as 187%. Also, the “glucose uptake, dose dependence” value (different EREG concentrations) is “dose-dependent fashion”.
insulin: insulin (bovine or human): the “glucose uptake compared to non-stimulated 3T3-L1 preadipocytes” value is 174%. Also, the “glucose uptake in preadipocytes” value (hINS 1.7 μM, AAC2 0.1 μM, 80 min, FIG. 42A) was “increase”.
